Test results reported in patent US8252822B2, “Heterocyclic compounds and uses as anticancer agents” (Acea Biosciences, Inc., priority 2007, dated 2012).

How the values were obtained:
A549 cells = assay: RT-CES cell proliferation inhibition, A549; type: cell-based, Human
Excerpt: The biological activity of compounds disclosed herein was monitored and profiled using the Real-Time Cell Electronic Sensing (RT-CES®) system from ACEA Biosciences, Inc. The RT-CES system utilizes cell-substrate impedance technology to monitor cellular behavior inside tissue culture wells in a microtiter plate format. The technology features in the integration of molecular and cell biology with microelectronics and is based on the electronic detection of biological assay process. The details of this cell electronic sensing technology and associated devices, systems and methods of use as described in U.S. provisional application No. 60/379,749, filed on Jul. 20, 2002; U.S. provisional application No. 60/435,400, filed on Dec. 20, 2002; U.S. Provisional application 60/469,572, filed on May 9, 2003, PCT application number PCT/US03/22557, filed on Jul. 18, 2003; PCT application number PCT/US03/22537, filed on Jul. 18, 2003; U.S. patent application Ser. No. 10/705,447, filed on Nov. 10, 2003; U.S. patent application Ser. No. 10/705,615, filed on Nov. 10, 2003, each of which is incorporated by reference. Additional details of RT-CES technology is further disclosed in U.S. provisional application No. 60/519,567, filed on Nov. 12, 2003, and U.S. provisional application No. 60/542,927, filed on Feb. 9, 2004.
For measurement of cell-substrate or cell-electrode impedance using RT-CES technology, microelectrodes having appropriate geometries are fabricated onto the bottom surfaces of microtiter plate or similar device, facing into the wells. Cells are introduced into the wells of the devices, and make contact to and attach to the electrode surfaces. The presence, absence or change of properties of cells affects the electronic and ionic passage on the electrode sensor surfaces. Measuring the impedance between or among electrodes provides important information about biological status of cells present on the sensors. When there are changes to the biological status of the cells analogue electronic readout signals are measured automatically and in real time, and are converted to digital signals for processing and for analysis. In a RT-CES system, a cell index (arbitrary representation of change in impedance) is automatically derived and provided based on measured electrode impedance values. The cell index obtained for a given well reflects: 1) how many cells are attached to the electrode surfaces in this well; 2) how well cells are attached to the electrode surfaces in this well. Thus, the more the cells of same type in similar physiological conditions attach the electrode surfaces, the larger the cell index. And, the better the cells attach to the electrode surfaces (e.g., the cells spread-out more to have larger contact areas, or the cells attach tighter to electrode surfaces), the larger the cell index.
The RT-CES system comprises three components, an electronic sensor analyzer, a device station and 16× or 96× microtiter devices. Microelectrode sensor array was fabricated on glass slides with lithographical microfabrication methods and the electrode-containing slides are assembled to plastic trays to form electrode-containing wells. The device station receives the 16× or 96× microtiter plate devices and is capable of electronically switching any one of the wells to the sensor analyzer for impedance measurement. In operation, the devices with cells cultured in the wells are placed into a device station that is located inside an incubator. Electrical cables connect the device station to the sensor analyzer. Under the RT-CES software control, the sensor analyzer can automatically select wells to be measured and continuously conduct impedance measurements. The impedance data from the analyzer is transferred to a computer, analyzed and processed by the integrated software.
To quantify cell status based on the measured cell-electrode impedance, a parameter termed Cell Index is derived. […]

## Br.Cc1nc2sccn2c1-c1csc(Nc2ccc(Br)cc2)n1 [Compound 28, 2-(4-bromophenyl)amino-4-(6-methylimidazo[2,1-b]thiazol-5-yl)thiazole]
A549 cells; 140 nM of compound vs 12.5 nM of paclitaxel
  response pattern of A549 cells compared with paclitaxel: somewhat similar
A549 cells; 560 nM of compound vs 25 nM of paclitaxel
  response pattern of A549 cells compared with paclitaxel: somewhat similar
A549 cells; A549, complex kinetic responses
  concentration at or above which cell indices first decreased with time and then increased: ≥ 0.14 µM
A549 cells; Homo sapiens, A549, 24 hours after compound treatment, normalized Cell Index, read-out: IC50 (24 hr)
  IC50: 86.4 nM
A549 cells; various concentrations studied, time-dependent cell index
  inhibitory ability against the proliferation of A549 cells: exhibited inhibitory ability against the proliferation of A549 cells

## Br.Cc1nc2sccn2c1-c1csc(Nc2ccc(Br)cc2)n1
other
  melting point: > 250 °C
